The text below walks through data of patent publication US6228872A, “Neurotrophic diamide and carbamate agents” (Bristol-Myers Squibb Company, priority 1999, dated 2001).

The conditions of experiment [1]: in vitro and in vivo; cited from earlier work.
A further experiment relates to HIV-infected cells. The note with it: cited from earlier work.
The next experiment deals with FKBP12 (Homo sapiens, UniProt P62942). Description: FKBP12 Rotamase Inhibition Assay. The class given is biochemical. The following applies: for inhibition at 10 µM: read-out: % inhib. at 10 μM. On the procedure: FKBP12 Rotamase Inhibition Assay
The rotamase activity of FKBP-12 was measured by an adaptation of the assay described by Kofron et al. (Biochemistry, 30, pp. 6127-6134 (1991)). The assay was carried out at 4° C. with 1 mg chymotrypsin/mL of assay with succinyl-Ala-Leu-Pro-Phe-p-nitroanilide as the substrate. Chymotrypsin rapidly hydrolyzes the peptide bond on the C-terminal side of the Phe of the trans form of the peptide and releases the chromogenic p-nitroaniline. The rate of the reaction is controlled by the rate of conversion of the cis form of the peptide to the trans-form, the reaction catalyzed by FKBP12. The apparent Ki values for inhibition of the rotamase activity were determined by measuring decreases in the first order rate constant of the reaction catalyzed by FKBP12 as a function of the concentrations of the compounds described herein. Ki is the concentration of the compound that causes 50 percent inhibition of rotamase activity which is indicative of neurite outgrowth activity.

Where [2] appears, read: Table 3, 1 μM, read-out: % rotamase inhib. at 1 μM.

Molecules are shown by their SMILES. Read-outs that look alike come from different tables or passages of the source.

Chain of FKBP12 (P62942 whole entry, species assumed): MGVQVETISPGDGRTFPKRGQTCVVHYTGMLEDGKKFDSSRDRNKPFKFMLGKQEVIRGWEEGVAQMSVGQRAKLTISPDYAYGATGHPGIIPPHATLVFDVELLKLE

Take `C=CC[C@@H]1/C=C(\C)C[C@H](C)C[C@H](OC)[C@H]2O[C@@](O)(C(=O)C(=O)N3CCCC[C@H]3C(=O)O[C@H](/C(C)=C/[C@@H]3CC[C@@H](O)[C@H](OC)C3)[C@H](C)[C@@H](O)CC1=O)[C@H](C)C[C@@H]2OC` [FK506]: in experiment [1], the neurotrophic properties entry was “possess neurotrophic properties in vitro and in vivo”. Moreover, the “inhibition of growth of HIV-infected cells” value in the experiment on HIV-infected cells is listed as “inhibits the growth of HIV-infected cells”.

In the case of `COc1cc(C(F)(F)C(=O)N2CCC[C@H]2COC(=O)N(CCCc2cccnc2)CCc2ccccc2)cc(OC)c1OC` [Example 27, N-(3,4,5-Trimethoxyphenyl)-difluoroacetyl-L-pyrrolidinylmethyl-[N',N'-3-(3-pyridyl)propyl-2-phenylethylamino]carbamate], the inhibition at 10 µM at FKBP12 (Table 2) was 97%. Also, the Ki at FKBP12 (Table 2, apparent Ki, 4° C., substrate succinyl-Ala-Leu-Pro-Phe-p-nitroanilide) was 234 nM.

Consider `COc1cc(C(F)(F)C(=O)N2CCC[C@H]2COC(=O)N(CCCc2ccc(C(=O)O)cc2)CCCc2cccnc2)cc(OC)c1OC` [Example 35, N-(3,4,5-Trimethoxyphenyl)-difluoroacetyl-L-pyrrolidinylmethyl-[N',N'-3-(3-pyridyl)propyl-3-(4-carboxyphenyl)propylamino]carbamate], for which, on FKBP12 (setting [2]), the inhibition at 1 µM was 94%.

Take `COc1cc(C(F)(F)C(=O)N2CCC[C@H]2COC(=O)N(CCCCc2cccnc2)CCCc2ccccc2)cc(OC)c1OC` [Example 29, N-(3,4,5-Trimethoxyphenyl)-difluoroacetyl-L-pyrrolidinylmethyl-[N',N'-4-(3-pyridyl)butyl-3-phenylpropylamino]carbamate]: the inhibition at 1 µM at FKBP12 (Table 2, 1 μM (values marked *), read-out: % inhib. at 1 μM*) is 80%.

As to `COc1cc(C(=O)C(=O)N2CCCC[C@H]2CCC(=O)N(CCCc2ccccc2)CCCc2cccnc2)cc(OC)c1OC` [Example 20], the inhibition at 1 µM on FKBP12 (Table 4, 1 μM, read-out: % rotamase inhib. at 1 μM) came out at 0%.

With `CC(C)(C)C(=O)C(=O)N1CCC[C@H]1COC(=O)N(CCc1ccccc1)Cc1ccccc1` [Example 3, N-Trimethylpyruvyl-L-pyrrolidinylmethyl-[N',N'-2-phenylethyl-benzylamino]carbamate], the inhibition at 10 µM on FKBP12 (Table 1) stood at 39%.

As to `COc1cccc(CCN(CCCc2cccnc2)C(=O)OC[C@@H]2CCCN2C(=O)C(F)(F)c2cc(OC)c(OC)c(OC)c2)c1` [Example 32, N-(3,4,5-Trimethoxyphenyl)-difluoroacetyl-L-pyrrolidinylmethyl-[N',N'-3-(3-pyridyl)propyl-2-(3-methoxyphenyl)ethylamino]carbamate], on FKBP12 (setting [2]), the inhibition at 1 µM was 93%.
